PubChem BioAssay (NCI)
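Where inhibition never reached the appropriate level, the endpoint shown equals the highest concentration tested. Otherwise, values were interpolated linearly from a five-concentration, 48-hour dose response in 96-well plates. TGI is the concentration that stops growth completely.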

How the values were obtained:
Experiment in all cases: NCI tumour cell line growth inhibition, 48 h
PC-3 prostate = system: PC-3 prostate
A549 NSCLC = system: A549 NSCLC
TK-10 renal = system: TK-10 renal
LOX IMVI melanoma = system: LOX IMVI melanoma
NCI-H23 lung = system: NCI-H23 lung
OVCAR-3 ovarian = system: OVCAR-3 ovarian
CAKI-1 renal = system: CAKI-1 renal
SF-295 CNS = system: SF-295 CNS
NCI/ADR-RES ovarian = system: NCI/ADR-RES ovarian
HCC-2998 colon = system: HCC-2998 colon
SN12C renal = system: SN12C renal
UACC-62 melanoma = system: UACC-62 melanoma
OVCAR-4 ovarian = system: OVCAR-4 ovarian
SNB-19 CNS = system: SNB-19 CNS
HL-60(TB) leukemia = system: HL-60(TB) leukemia
OVCAR-8 ovarian = system: OVCAR-8 ovarian
MDA-MB-435 = system: MDA-MB-435
SR leukemia = system: SR leukemia
SK-OV-3 ovarian = system: SK-OV-3 ovarian
HT29 colon = system: HT29 colon
COLO 205 colon = system: COLO 205 colon
BT-549 breast = system: BT-549 breast
HOP-62 NSCLC = system: HOP-62 NSCLC
K-562 leukemia = system: K-562 leukemia
EKVX NSCLC = system: EKVX NSCLC
HOP-92 NSCLC = system: HOP-92 NSCLC
A498 renal = system: A498 renal
IGROV1 ovarian = system: IGROV1 ovarian
ACHN renal = system: ACHN renal
UO-31 renal = system: UO-31 renal
HCT-116 colon = system: HCT-116 colon
SW-620 colon = system: SW-620 colon
MDA-N = system: MDA-N
SK-MEL-5 melanoma = system: SK-MEL-5 melanoma
M14 melanoma = system: M14 melanoma
MCF7 breast = system: MCF7 breast
HS 578T breast = system: HS 578T breast
HCT-15 colon = system: HCT-15 colon
MALME-3M melanoma = system: MALME-3M melanoma
UACC-257 melanoma = system: UACC-257 melanoma
SK-MEL-2 melanoma = system: SK-MEL-2 melanoma
CCRF-CEM leukemia = system: CCRF-CEM leukemia
RPMI-8226 leukemia = system: RPMI-8226 leukemia
SF-539 CNS = system: SF-539 CNS
OVCAR-5 ovarian = system: OVCAR-5 ovarian
NCI-H460 lung = system: NCI-H460 lung
786-0 renal = system: 786-0 renal
MOLT-4 leukemia = system: MOLT-4 leukemia
MDA-MB-231 breast = system: MDA-MB-231 breast
U251 CNS = system: U251 CNS
KM12 colon = system: KM12 colon
SK-MEL-28 melanoma = system: SK-MEL-28 melanoma
NCI-H226 lung = system: NCI-H226 lung
NCI-H522 lung = system: NCI-H522 lung
SNB-75 CNS = system: SNB-75 CNS
T-47D breast = system: T-47D breast
DU-145 prostate = system: DU-145 prostate
RXF 393 renal = system: RXF 393 renal
SF-268 CNS = system: SF-268 CNS

Cc1ccc(O)c(-c2cscn2)c1
TGI (PC-3 prostate): > 100 µM
TGI (A549 NSCLC): > 100 µM
TGI (TK-10 renal): > 100 µM
TGI (LOX IMVI melanoma): > 100 µM
TGI (NCI-H23 lung): > 100 µM
TGI (OVCAR-3 ovarian): > 100 µM
TGI (CAKI-1 renal): > 100 µM
TGI (SF-295 CNS): > 100 µM
TGI (NCI/ADR-RES ovarian): > 100 µM
TGI (HCC-2998 colon): > 100 µM
TGI (SN12C renal): > 100 µM
TGI (UACC-62 melanoma): > 100 µM
TGI (OVCAR-4 ovarian): > 100 µM
TGI (SNB-19 CNS): > 100 µM
TGI (HL-60(TB) leukemia): 22.2 µM
TGI (OVCAR-8 ovarian): > 100 µM
TGI (MDA-MB-435): > 100 µM
TGI (SR leukemia): > 100 µM
TGI (SK-OV-3 ovarian): > 100 µM
TGI (HT29 colon): > 100 µM
TGI (COLO 205 colon): > 100 µM
TGI (BT-549 breast): > 100 µM
TGI (HOP-62 NSCLC): > 100 µM
TGI (K-562 leukemia): > 100 µM
TGI (EKVX NSCLC): > 100 µM
TGI (HOP-92 NSCLC): > 100 µM
TGI (A498 renal): 70 µM
TGI (IGROV1 ovarian): > 100 µM
TGI (ACHN renal): > 100 µM
TGI (UO-31 renal): > 100 µM
TGI (HCT-116 colon): > 100 µM
TGI (SW-620 colon): > 100 µM
TGI (MDA-N): > 100 µM
TGI (SK-MEL-5 melanoma): > 100 µM
TGI (M14 melanoma): > 100 µM
TGI (MCF7 breast): > 100 µM
TGI (HS 578T breast): > 100 µM
TGI (HCT-15 colon): > 100 µM
TGI (MALME-3M melanoma): > 100 µM
TGI (UACC-257 melanoma): > 100 µM
TGI (SK-MEL-2 melanoma): > 100 µM
TGI (CCRF-CEM leukemia): > 100 µM
TGI (RPMI-8226 leukemia): > 100 µM
TGI (SF-539 CNS): > 100 µM
TGI (OVCAR-5 ovarian): > 100 µM
TGI (NCI-H460 lung): > 100 µM
TGI (786-0 renal): > 100 µM
TGI (MOLT-4 leukemia): > 100 µM

Oc1cccc(-c2nc3cc(F)ccc3s2)c1
TGI (PC-3 prostate): 65 µM
TGI (MDA-MB-231 breast): 51.6 µM
TGI (A549 NSCLC): 88.5 µM
TGI (TK-10 renal): 37.4 µM
TGI (LOX IMVI melanoma): 34.7 µM
TGI (NCI-H23 lung): 70.7 µM
TGI (U251 CNS): 76.7 µM
TGI (OVCAR-3 ovarian): 43.4 µM
TGI (CAKI-1 renal): 35.2 µM
TGI (SF-295 CNS): 50.7 µM
TGI (NCI/ADR-RES ovarian): 54.3 µM
TGI (KM12 colon): 34.6 µM
TGI (HCC-2998 colon): 23.2 µM
TGI (SN12C renal): 82.7 µM
TGI (UACC-62 melanoma): 35.1 µM
TGI (OVCAR-4 ovarian): 52.3 µM
TGI (SNB-19 CNS): 99 µM
TGI (SK-MEL-28 melanoma): 50.3 µM
TGI (HL-60(TB) leukemia): 61 µM
TGI (NCI-H226 lung): 44 µM
TGI (OVCAR-8 ovarian): 51.2 µM
TGI (MDA-MB-435): 58.5 µM
TGI (SR leukemia): 47.8 µM
TGI (SK-OV-3 ovarian): 70 µM
TGI (HT29 colon): 31.7 µM
TGI (NCI-H522 lung): 25.7 µM
TGI (SNB-75 CNS): 39.4 µM
TGI (COLO 205 colon): 30 µM
TGI (BT-549 breast): 45.1 µM
TGI (K-562 leukemia): > 100 µM
TGI (EKVX NSCLC): 32.5 µM
TGI (A498 renal): 27.6 µM
TGI (IGROV1 ovarian): 33.1 µM
TGI (ACHN renal): 71.3 µM
TGI (UO-31 renal): 52.5 µM
TGI (HCT-116 colon): 53.8 µM
TGI (SW-620 colon): > 100 µM
TGI (MDA-N): 61.8 µM
TGI (SK-MEL-5 melanoma): 25 µM
TGI (M14 melanoma): 37.8 µM
TGI (MCF7 breast): 51.4 µM
TGI (HCT-15 colon): 56.4 µM
TGI (MALME-3M melanoma): 48.6 µM
TGI (T-47D breast): 14.2 µM
TGI (DU-145 prostate): 57.9 µM
TGI (UACC-257 melanoma): 34.3 µM
TGI (RXF 393 renal): > 100 µM
TGI (SK-MEL-2 melanoma): 43.2 µM
TGI (CCRF-CEM leukemia): 73.8 µM
TGI (RPMI-8226 leukemia): 54.3 µM
TGI (SF-268 CNS): 65.6 µM
TGI (SF-539 CNS): 55.8 µM
TGI (OVCAR-5 ovarian): 52.9 µM
TGI (NCI-H460 lung): 55.4 µM
TGI (786-0 renal): 39 µM
TGI (MOLT-4 leukemia): 59 µM
